According to ChEMBL document CHEMBL3352595, “Anti-inflammatory secoiridoid glycosides from Gentianella azurea” (Bioorg Med Chem Lett, 2014):
pIC50: −log10 of the molar value.

What follows are compounds tested on RAW264.7 (assay: Anti-inflammatory activity in mouse RAW264.7 cells assessed as inhibition of LPS-induced nitric oxide production).
Assay type: functional, cell-based

Going from `C=C[C@H]1[C@H](O[C@@H]2O[C@H](COC(C)=O)[C@@H](O)[C@H](OC(C)=O)[C@H]2OC(C)=O)OC=C2C(=O)OCC[C@H]21` to `C=C[C@H]1[C@H](O[C@@H]2O[C@H](COC(C)=O)[C@@H](OC(C)=O)[C@H](O)[C@H]2OC(C)=O)OC=C2C(=O)OCC[C@H]21`, the pIC50 rises from under 3.70 to 4.28.

`C=C[C@H]1[C@H](O[C@@H]2O[C@H](COC(C)=O)[C@@H](OC(C)=O)[C@H](OC(C)=O)[C@H]2O)OC=C2C(=O)OCC[C@H]21` and `C=C[C@H]1[C@H](O[C@@H]2O[C@H](COC(C)=O)[C@@H](O)[C@H](OC(C)=O)[C@H]2OC(=O)c2cccc(O)c2O)OC=C2C(=O)OCC[C@H]21` cannot be ordered by pIC50: under 3.70 for the first, under 3.70 for the second.

Going from `C=C[C@H]1[C@H](O[C@@H]2O[C@H](COC(C)=O)[C@@H](OC(C)=O)[C@H](O)[C@H]2OC(=O)c2cccc(O)c2O)OC=C2C(=O)OCC[C@H]21` to `C=C[C@H]1[C@H](O[C@@H]2O[C@H](COC(C)=O)[C@@H](OC(=O)c3cccc(O)c3O[C@@H]3O[C@H](CO)[C@@H](O)[C@H](O)[C@H]3O)[C@H](OC(C)=O)[C@H]2OC(=O)c2cccc(O)c2O)OC=C2C(=O)OCC[C@H]21`, the pIC50 falls from 6.16 to 5.29 (0.87 log units). The first is the more potent here.

`C=C[C@H]1[C@H](O[C@@H]2O[C@H](COC(=O)c3cccc(O)c3O[C@@H]3O[C@H](CO)[C@@H](O)[C@H](O)[C@H]3O)[C@@H](O)[C@H](OC(C)=O)[C@H]2OC(=O)c2cccc(O)c2O)OC=C2C(=O)OCC[C@H]21` and `C=C[C@H]1[C@H](O[C@@H]2O[C@H](COC(=O)c3cccc(O)c3O[C@@H]3O[C@H](CO)[C@@H](O)[C@H](O)[C@H]3O)[C@@H](O)[C@H](O)[C@H]2OC(=O)c2cccc(O)c2O)OC=C2C(=O)OCC[C@H]21` cannot be ordered by pIC50: under 3.70 for the first, under 3.70 for the second.

`C=C[C@H]1[C@H](O[C@@H]2O[C@H](CO)[C@@H](OC(=O)c3cccc(O)c3O[C@@H]3O[C@H](CO)[C@@H](O)[C@H](O)[C@H]3O)[C@H](O)[C@H]2O)OC=C2C(=O)OCC[C@H]21` and `C=C[C@H]1[C@H](O[C@@H]2O[C@H](COC(=O)c3cccc(O)c3O[C@@H]3O[C@H](CO)[C@@H](O)[C@H](O)[C@H]3O)[C@@H](O)[C@H](O)[C@H]2O)OC=C2C(=O)OCC[C@H]21` cannot be ordered by pIC50: under 3.70 for the first, under 3.70 for the second.

For `C=C[C@H]1[C@H](O[C@@H]2O[C@H](CO)[C@@H](O)[C@H](O)[C@H]2OC(=O)/C=C/c2ccc(O)cc2)OC=C2C(=O)OCC[C@]21O`, the pIC50 was under 3.70.
